According to US5045537A, “Hydrophilic renin inhibitors, their preparation and use” (Sandoz Ltd., priority 1987, dated 1991):

What was measured:
human plasma renin = target: T1, human plasma renin (Homo sapiens, UniProt P00797); assay: Antibody-trapping method of Poulsen and Jorgensen, human plasma renin activity; assay type: biochemical; conditions: antibody trapping test
T1 construct: human plasma renin activity; from tissue; host or cells: human plasma
T1 sequence (P00797 67-406): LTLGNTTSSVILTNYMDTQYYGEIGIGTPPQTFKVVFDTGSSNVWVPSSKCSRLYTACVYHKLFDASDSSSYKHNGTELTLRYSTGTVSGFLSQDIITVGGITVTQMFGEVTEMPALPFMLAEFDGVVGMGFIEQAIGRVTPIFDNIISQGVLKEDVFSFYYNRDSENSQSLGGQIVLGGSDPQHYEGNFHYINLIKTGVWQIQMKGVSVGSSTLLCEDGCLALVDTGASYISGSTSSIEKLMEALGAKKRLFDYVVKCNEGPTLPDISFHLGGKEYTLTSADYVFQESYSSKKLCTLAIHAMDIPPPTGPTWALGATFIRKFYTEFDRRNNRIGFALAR
Text: In the antibody-trapping method of K. Poulsen and J. Jorgensen (J. Clin. Endocrin. Metab. 39, [1974] 816-825), they inhibit human plasma renin activity at a concentration of 10^-5 M to 10^-11 M.

FeLV = conditions: 30 mg treatment over 14 days; cited from earlier work

| IC50 (human plasma renin) | highest inhibiting concentration (human plasma renin) | lowest inhibiting concentration (human plasma renin) | SMILES | cure (FeLV) | reduction of FeLV-titres by a factor (FeLV) |
| --- | --- | --- | --- | --- | --- |
| 1.5 nM | 15 nM/l | 0,15 nM/l | CCCC[C@H](NC(=O)[C@H](Cc1cccs1)NC(=O)COCCOCCOCCOC)C(=O)N[C@@H](CC1CCCCC1)[C@@H](O)CC(=O)N[C@@H](CC(C)C)C(=O)NCc1ccccn1 [Example 46, 3EG-Thala-Nle-Chatin-Leu-α-Pic] | – | – |
| – | – | – | Cc1cn([C@H]2C[C@H](N=[N+]=[N-])[C@@H](CO)O2)c(=O)[nH]c1=O [3'-azido-3'-deoxy-thymidine] | no cure was achieved | 10 |
